Key:
Leishmania donovani [1] = experiment: Antileishmanial activity against Leishmania donovani axenic amastigotes after 72 hrs by serial dilution method; format: functional, organism-based
Leishmania donovani [2] = experiment: Antileishmanial activity against Leishmania donovani infected macrophage; format: functional, organism-based

In the case of `C[N+](C)(C)CCOP(=O)([O-])OCC(COCc1ccccc1)OCc1ccccc1` (stereo unspecified), the IC50 (Leishmania donovani [1]) is reported as 4.15 µM.

With `CCCCCCCCCCCCCCCCCCOC(COCn1nnc2ccccc21)COP(=O)([O-])OCC[N+](C)(C)C` (stereo unspecified) the IC50 (Leishmania donovani [2]) was 0.78 µM and the IC50 (Leishmania donovani [1]) was 0.66 µM.

Work on `C[N+](C)(C)CCOP(=O)([O-])OCC(COCn1nnc2ccccc21)OCc1cccc2ccccc12` (stereo unspecified) yielded an IC50 (Leishmania donovani [1]) of 33.1 µM.

Molecule `Cc1noc(C)c1COCC(COP(=O)([O-])OCC[N+](C)(C)C)OCc1cccc2ccccc12` (stereo unspecified) has an IC50 (Leishmania donovani [1]) of over 50 µM.

Molecule `CCCCCCCCCCCCCCCCOP(=O)([O-])OCC[N+](C)(C)C` [MILTEFOSINE] has an IC50 (Leishmania donovani [2]) of 1.74 µM and an IC50 (Leishmania donovani [1]) of 0.22 µM.

Molecule `CCCCCCCCCCCCCCCCCCOC(COCc1ccccc1)COP(=O)([O-])OCC[N+](C)(C)C` (stereo unspecified) has an IC50 (Leishmania donovani [1]) of 1.6 µM.

`C[N+](C)(C)CCOP(=O)([O-])OCC(COCc1ccccc1)OCc1cccc2ccccc12` (stereo unspecified) gave an IC50 (Leishmania donovani [1]) of 13.8 µM.

Molecule `C=CCOCC(COP(=O)([O-])OCC[N+](C)(C)C)OCCCC` (stereo unspecified) has an IC50 (Leishmania donovani [1]) of 42.5 µM.

`C=CCOCC(COP(=O)([O-])OCC[N+](C)(C)C)OCCCCCCCCCCCCCCCCCC` (stereo unspecified) gave an IC50 (Leishmania donovani [1]) of 6.75 µM.

Molecule `CCCCCCCCCCCCCCCCCCOC(COCc1c(C)noc1C)COP(=O)([O-])OCC[N+](C)(C)C` (stereo unspecified) has an IC50 (Leishmania donovani [1]) of 1.3 µM.

With `CCCCOC(COCc1c(C)noc1C)COP(=O)([O-])OCC[N+](C)(C)C` (stereo unspecified) the IC50 (Leishmania donovani [1]) was over 50 µM.

Molecule `Cc1noc(C)c1COCC(COP(=O)([O-])OCC[N+](C)(C)C)OCc1ccccc1` (stereo unspecified) has an IC50 (Leishmania donovani [1]) of over 50 µM.

For `C[N+](C)(C)CCOP(=O)([O-])OCC(COCn1nnc2ccccc21)Oc1ccccc1` (stereo unspecified), the IC50 (Leishmania donovani [1]) was 28.2 µM.

For `CCCCOC(COCn1nnc2ccccc21)COP(=O)([O-])OCC[N+](C)(C)C` (stereo unspecified), the IC50 (Leishmania donovani [1]) was over 50 µM.

`C[N+](C)(C)CCOP(=O)([O-])OCC(COCc1ccccc1)Oc1ccccc1` (stereo unspecified) showed an IC50 (Leishmania donovani [1]) of over 50 µM.

`CCCCOC(COCc1ccccc1)COP(=O)([O-])OCC[N+](C)(C)C` (stereo unspecified) showed an IC50 (Leishmania donovani [1]) of over 50 µM.

`C[N+](C)(C)CCOP(=O)([O-])OCC(COCn1nnc2ccccc21)OCc1ccccc1` (stereo unspecified) showed an IC50 (Leishmania donovani [1]) of over 50 µM.

`Cc1noc(C)c1COCC(COP(=O)([O-])OCC[N+](C)(C)C)Oc1ccccc1` (stereo unspecified) showed an IC50 (Leishmania donovani [1]) of over 50 µM.

`C=CCOCC(COP(=O)([O-])OCC[N+](C)(C)C)OCc1cccc2ccccc12` (stereo unspecified) was tested, and the IC50 (Leishmania donovani [1]) was 26.7 µM.

Source: ChEMBL document CHEMBL1155926, “Parallel synthesis and antileishmanial activity of ether-linked phospholipids” (Bioorg Med Chem Lett, 2008)
